Assay results as given in patent publication US5869484A, “Phenylcarbamate derivatives suitable to the use as anticholinesterase substances” (priority 1994, dated 1999).

How the values were obtained:
AChE E. eel = molecular target: T1, AChE E. eel (Electrophorus electricus, UniProt O42275); experiment: biochemical; design: species or system Electric Eel
T1 construct: purchased Sigma Chemical
Description: (§1) The incubation time between enzyme and product used for the determinations has been 10'.
(§2) The acetylcholinesterase from human erythrocytes (AChE hRBC), the acetylcholinesterase from Electric Eel (AChE E.eel) and the butyrylcholinesterase from human serum (BuChE hserum) coming from the Sigma Chemical have been used.

BuChE hserum = molecular target: T2, BuChE hserum (Homo sapiens, UniProt P06276); experiment: Inhibition of butyrylcholinesterase from human serum (Ellman method); assay type: biochemical; conditions: for activity on the BuChE: Table 1
T2 construct: purchased Sigma Chemical; host or cells: human serum
T2 sequence (P06276 29-602): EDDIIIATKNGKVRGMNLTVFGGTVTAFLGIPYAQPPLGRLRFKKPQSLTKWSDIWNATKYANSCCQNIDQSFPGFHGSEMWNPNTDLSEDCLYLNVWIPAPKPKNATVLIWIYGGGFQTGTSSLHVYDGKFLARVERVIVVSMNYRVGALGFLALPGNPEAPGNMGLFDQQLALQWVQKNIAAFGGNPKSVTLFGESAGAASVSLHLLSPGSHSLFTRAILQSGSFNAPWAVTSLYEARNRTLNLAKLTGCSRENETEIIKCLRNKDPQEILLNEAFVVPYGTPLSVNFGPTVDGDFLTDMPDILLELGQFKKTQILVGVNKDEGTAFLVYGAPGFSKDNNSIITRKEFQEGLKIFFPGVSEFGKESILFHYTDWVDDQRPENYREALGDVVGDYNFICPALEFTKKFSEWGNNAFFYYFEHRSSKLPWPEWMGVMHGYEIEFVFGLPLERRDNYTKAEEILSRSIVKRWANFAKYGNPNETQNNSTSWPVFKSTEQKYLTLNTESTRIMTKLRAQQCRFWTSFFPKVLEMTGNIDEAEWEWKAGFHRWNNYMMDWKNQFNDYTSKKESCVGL
Description: as §1, §2

AChE hRBC = molecular target: T3, AChE hRBC (Homo sapiens, UniProt P22303); experiment: biochemical; conditions: for potency compared with eptastigmine, physostigmine or tacrine: comparison from Table 1; for AChE inhibitory activity and selectivity: AChE versus BuChE, Table 1
T3 construct: purchased Sigma Chemical; host or cells: human erythrocytes
T3 sequence (P22303 32-617 isoform P22303-2 limits assumed): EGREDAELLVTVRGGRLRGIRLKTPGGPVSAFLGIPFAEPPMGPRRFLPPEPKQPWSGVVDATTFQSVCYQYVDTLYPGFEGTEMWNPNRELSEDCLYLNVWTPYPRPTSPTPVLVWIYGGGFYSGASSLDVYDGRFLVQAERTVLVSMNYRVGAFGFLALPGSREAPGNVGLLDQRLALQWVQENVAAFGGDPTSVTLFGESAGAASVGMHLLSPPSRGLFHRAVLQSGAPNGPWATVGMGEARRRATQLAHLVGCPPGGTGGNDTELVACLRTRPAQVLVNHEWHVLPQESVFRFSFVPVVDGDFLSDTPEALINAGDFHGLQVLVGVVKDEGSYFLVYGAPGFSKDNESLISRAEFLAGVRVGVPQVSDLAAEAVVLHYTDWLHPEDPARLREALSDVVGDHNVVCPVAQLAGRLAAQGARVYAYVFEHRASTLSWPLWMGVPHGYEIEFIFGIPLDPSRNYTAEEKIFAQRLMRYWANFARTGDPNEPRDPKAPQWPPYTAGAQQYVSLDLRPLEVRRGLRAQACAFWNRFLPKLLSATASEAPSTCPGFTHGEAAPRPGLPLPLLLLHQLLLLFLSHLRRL
Description: as §1, §2

[1] = Acute toxicity (single administration) in mouse; conditions: in vivo
[2] = Acute toxicity (single administration) in rat; conditions: in vivo
[3] = prior art, Eur. Neuropsychopharmacol. 1(3) (1991); cited from earlier work
[4] = iv, read-out: Toxicity tests (LD50), rat iv
[5] = po, os, read-out: Toxicity tests (LD50), rat os

T1 sequence (O42275 24-633): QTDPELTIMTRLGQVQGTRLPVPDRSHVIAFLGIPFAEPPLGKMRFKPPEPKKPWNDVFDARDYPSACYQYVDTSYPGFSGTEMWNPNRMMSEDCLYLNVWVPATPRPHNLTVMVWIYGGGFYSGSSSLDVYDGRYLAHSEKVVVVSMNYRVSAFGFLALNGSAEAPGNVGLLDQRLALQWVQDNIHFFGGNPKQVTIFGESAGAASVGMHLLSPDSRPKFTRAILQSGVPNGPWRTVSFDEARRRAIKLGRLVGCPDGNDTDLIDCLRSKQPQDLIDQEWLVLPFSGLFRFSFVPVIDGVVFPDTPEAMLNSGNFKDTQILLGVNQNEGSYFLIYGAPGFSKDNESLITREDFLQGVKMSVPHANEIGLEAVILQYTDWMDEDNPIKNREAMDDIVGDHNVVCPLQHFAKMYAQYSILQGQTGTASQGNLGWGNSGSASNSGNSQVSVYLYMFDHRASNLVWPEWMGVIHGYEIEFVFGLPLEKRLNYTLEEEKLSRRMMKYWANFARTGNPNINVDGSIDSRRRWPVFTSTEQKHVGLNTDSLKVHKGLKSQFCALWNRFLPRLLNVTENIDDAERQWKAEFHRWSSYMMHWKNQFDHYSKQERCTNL

SMILES | IC50 (AChE E. eel) | IC50 (BuChE hserum) | IC50 (AChE hRBC) | potency compared with eptastigmine, physostigmine or tacrine (AChE hRBC) | activity on the BuChE (BuChE hserum) | AChE inhibitory activity and selectivity (AChE hRBC) | other results
C[C@H]1CN(CCCCCCCCNC(=O)Oc2cccc(C(C)(C)CN(C)C)c2)C[C@H](C)O1 (relative stereo) [Ex. 3, 3-[(1-dimethylamino-2-methyl)-prop-2-yl]-N-[8-[4-(trans 2,6-dimethyl)morpholinyl]octyl]-phenylcarbamate] | 1.2 µM | 0.02 µM | 0.2 µM |  |  |  | 
C[C@@H]1CN(CCCCCCCCNC(=O)Oc2cccc(C(C)(C)CN(C)C)c2)C[C@H](C)O1 [Ex. 2, 3-[(1-dimethylamino-2-methyl)-prop-2-yl]-N-8-[[4-(cis2,6-dimethyl)morpholinyl]octyl]-phenylcarbamate] | 1.1 µM | 0.02 µM | 0.42 µM |  |  |  | LD50 ([1]; po, os, read-out: Toxicity tests (LD50), mouse os): > 50 mg/kg
CCCCNC(=O)Oc1cccc(C(C)(C)CN(C)C)c1 [Ex. 4, 3-[(1-dimethylamino-2-methyl)prop-2-yl]-N-butylphenyl carbamate] | 0.25 µM | 0.0016 µM | 0.13 µM | equal or even superior to that of eptastigmine or of physostigmine |  |  | 
CCCCCCCNC(=O)Oc1cccc(C(C)(C)CN(C)C)c1 [Ex. 5, 3-[(1-dimethylamino-2-methyl)prop-2-yl]-N-heptyl-phenyl carbamate] | 0.12 µM | 0.03 µM | 0.18 µM | equal or even superior to that of eptastigmine or of physostigmine |  |  | 
CC(CN(C)C)c1cccc(OC(=O)NCCCCCCCCN2CCOCC2)c1 (stereo not shown) [Ex. 8, 3-[(1-dimethylamino)prop-2-yl]-N-[8-(4-morpholinyl)octyl]-phenyl carbamate] | 1.3 µM | 0.014 µM | 0.22 µM |  |  |  | 
COc1cc2nc(N3CCN(C(=O)CCCCCCCNC(=O)Oc4cccc(C(C)(C)CN(C)C)c4)CC3)nc(N)c2cc1OC [Ex. 12, 3-[(1-dimethylamino-2-methyl)prop-2-yl]-N-[1-[4-(4-amino-6,7-dimethoxy)quinazolin-2-yl]piperazinyl]-8-octanoyl]-phenyl carbamate] | 0.017 µM | 0.05 µM | 0.08 µM | equal or even superior to that of eptastigmine or of physostigmine |  |  | 
COc1cc2nc(NCCCCCCCNC(=O)Oc3cccc(C(C)(C)CN(C)C)c3)nc(N)c2cc1OC [Ex. 13, 3-[(1-dimethylamino-2-methyl)prop-2-yl]-N-[N-[(4-amino-6,7-dimethoxy)quinazolin-2-yl]aminoheptyl]-phenyl carbamate] | 0.023 µM | 0.028 µM | 0.015 µM | equal or even superior to that of eptastigmine or of physostigmine |  |  | 
CN(Cc1ccccc1)CC(C)(C)c1cccc(OC(=O)NCCCCCCCCN2CCOCC2)c1 [Ex. 16, 3-[(1-(N-benzyl-N-methyl)amino-2-methyl)prop-2-yl]-N-[8-(4-morpholinyl)-octyl]-phenylcarbamate] | 14 µM | 0.007 µM | 4.8 µM |  |  |  | 
CN(C)CC(C)(C)c1cccc(OC(=O)NCCCCCCCCCCN2CCOCC2)c1 [Ex. 18, 3-[(1-dimethylamino-2-methyl)prop-2-yl]-N-[10-(4-morpholinyl)decyl]-phenylcarbamate] |  |  | 0.1 µM | equal or even superior to that of eptastigmine or of physostigmine |  |  | 
CN(C)CC(C)(C)c1cccc(OC(=O)Nc2ccccc2)c1 [Ex. 19, 3-[1(1-dimethylamino-2-methyl)prop-2-yl]-N-phenyl phenylcarbamate] |  | 0.23 µM | 0.1 µM | equal or even superior to that of eptastigmine or of physostigmine |  |  | 
CN(C)CC(C)(C)c1cccc(OC(=O)Nc2cccc(F)c2)c1 [Ex. 20, 3-[(1-dimethylamino-2-methyl)prop-2-yl]-N-(3-fluoro)phenyl phenylcarbamate] |  | > 100 µM | 0.22 µM |  | poor activity on the BuChE | potent and selective AChE inhibitory activity | 
Cc1cccc(NC(=O)Oc2cccc(C(C)(C)CN(C)C)c2)c1 [Ex. 21, 3-[(1-dimethylamino-2-methyl)prop-2-yl]-N-(3-methyl)phenyl phenylcarbamate] |  | 0.5 µM | 0.6 µM |  |  |  | 
COc1cccc(NC(=O)Oc2cccc(C(C)(C)CN(C)C)c2)c1 [Ex. 22, 3-[(1-dimethylamino-2-methyl)prop-2-yl]-N-(3-methoxy)phenyl phenylcarbamate] |  | 0.6 µM | 0.21 µM |  |  |  | 
CN(C)CC(C)(C)c1cccc(OC(=O)Nc2cccc(Cl)c2)c1 [Ex. 23, 3-[(1-dimethylamino-2-methyl)prop-2-yl]-N-(3-chloro)phenyl phenylcarbamate] |  | > 100 µM | 0.22 µM |  | poor activity on the BuChE | potent and selective AChE inhibitory activity | 
CN(C)CC(C)(C)c1cccc(OC(=O)NCc2ccccc2)c1 [Ex. 24, 3-[(1-dimethylamino-2-methyl)prop-2-yl]-N-benzyl-phenylcarbamate] |  | 0.0013 µM | 0.06 µM | equal or even superior to that of eptastigmine or of physostigmine |  |  | 
CN(C)CC(C)(C)c1cccc(OC(=O)N(C)c2ccccc2)c1 [Ex. 25, 3-[(1-dimethylamino-2-methyl)prop-2-yl]-N-phenyl-N-methyl-phenylcarbamate] |  | > 1000 µM | 1.7 µM |  | poor activity on the BuChE | potent and selective AChE inhibitory activity | LD50 [2, 4]: 14 mg/kg; LD50 [2, 5]: 56 mg/kg; LD50 ([1]; iv, read-out: Toxicity tests (LD50), mouse iv): 15 mg/kg
CN(C)CC(C)(C)c1cccc(OC(=O)N(C)c2cccc(Cl)c2)c1 [Ex. 26, 3-[(1-dimethylamino-2-methyl)prop-2-yl]-N-(3-chloro)-phenyl-N-methyl-phenylcarbamate] |  | 220 µM | 0.4 µM |  | poor activity on the BuChE | potent and selective AChE inhibitory activity | 
CCCCN(C(=O)Oc1cccc(C(C)(C)CN(C)C)c1)c1ccccc1 [Ex. 32, 3-[(1-dimethylamino-2-methyl)prop-2-yl]-N-butyl-N-phenyl phenylcarbamate] |  | 70 µM | 0.42 µM |  |  |  | 
COc1ccc(N(C)C(=O)Oc2cccc(C(C)(C)CN(C)C)c2)cc1 [Ex. 35, 3-[(1-dimethylamino-2-methyl)prop-2-yl]-N-methyl-N-(4-methoxy)phenyl phenylcarbamate] |  | > 100 µM | 0.013 µM | equal or even superior to that of eptastigmine or of physostigmine | poor activity on the BuChE | potent and selective AChE inhibitory activity | LD50 [2, 4]: 3 mg/kg; LD50 [2, 5]: 40 mg/kg
CCN(C(=O)Oc1cccc(C(C)(C)CN(C)C)c1)c1ccc(OC)cc1 [Ex. 36, 3-[(1-dimethylamino-2-methyl)prop-2-yl]-N-ethyl-N-(4-methoxy)phenyl phenylcarbamate] |  | 21 µM | 1.1 µM |  |  |  | 
CN(C)CC(C)(C)c1cccc(OC(=O)N(C)c2ccc(Cl)cc2)c1 [Ex. 37, 3-[(1-dimethylamino-2-methyl)prop-2-yl]-N-(4-chloro)phenyl-N-methyl phenylcarbamate] |  | 8 µM | 0.06 µM | equal or even superior to that of eptastigmine or of physostigmine | poor activity on the BuChE | potent and selective AChE inhibitory activity | 
CN(C)CC(C)(C)c1cccc(OC(=O)N(C)c2cccc(F)c2)c1 [Ex. 38, 3-[(1-dimethylamino-2-methyl)prop-2-yl]-N-(3-fluoro)phenyl-N-methyl phenylcarbamate] |  | > 100 µM | 0.05 µM | equal or even superior to that of eptastigmine or of physostigmine | poor activity on the BuChE | potent and selective AChE inhibitory activity | LD50 [2, 5]: > 40 mg/kg
CN(C)CC(C)(C)c1cccc(OC(=O)N(C)c2cccc(C(F)(F)F)c2)c1 [Ex. 39, 3-[(1-dimethylamino-2-methyl)prop-2-yl]-N-methyl-N-(3-trifluoromethyl) phenyl phenylcarbamate] |  | > 100 µM | 1.1 µM |  | poor activity on the BuChE | potent and selective AChE inhibitory activity | 
CN(C)CC(C)(C)c1cccc(OC(=O)N(C)C2CCCCC2)c1 [Ex. 40, 3-[(1-dimethylamino-2-methyl)prop-2-yl]-N-cyclohexyl-N-methyl phenylcarbamate] |  | > 100 µM | 0.18 µM | equal or even superior to that of eptastigmine or of physostigmine | poor activity on the BuChE | potent and selective AChE inhibitory activity | LD50 [2, 5]: > 40 mg/kg
Nc1c2c(nc3ccccc13)CCCC2 [Tacrine, 9-amino-1,2,3,4-tetrahydroacridine] |  |  |  |  |  |  | transaminase levels [3]: induce high transaminase levels
Nc1c2c(nc3ccccc13)CCCC2O (stereo not shown) [Velnacrine] |  |  |  |  |  |  | transaminase levels [3]: induce high transaminase levels
